Experimental data published in US8999956B2, “N-[(het)arylalkyl)] pyrazole(thio)carboxamides and their heterosubstituted analogues” (Bayer Intellectual Property GmbH, priority 2010, dated 2015).

Assay: log P by HPLC on reversed-phase column (EEC Directive 79/831 Annex V.A8)
Type: physicochemical
Protocol: In table 1, the log P values were determined in accordance with EEC Directive 79/831 Annex V.A8 by HPLC (High Performance Liquid Chromatography) on a reversed-phase column (C18), using the method described below: Temperature: 40° C.; […]

Row | logP | SMILES
1 | 3.41 | Cc1ccc(C(C)CCN(C(=O)c2c(C(F)F)nn(C)c2F)C2CC2)o1 (stereo not shown) [Example 107]
2 | 3.56 | Cc1ccc(C(C)CCN(C(=O)c2c(C(F)F)nn(C)c2Cl)C2CC2)o1 (stereo not shown) [Example 108]
3 | 2.88 | Cc1ccc(C(C)CCN(C)C(=O)c2c(C(F)F)nn(C)c2F)o1 (stereo not shown) [Example 109]
4 | 3.02 | Cc1ccc(C(C)CCN(C)C(=O)c2c(C(F)F)nn(C)c2Cl)o1 (stereo not shown) [Example 110]
5 | 3.29 | CON(CCC(C)c1ccc(C)o1)C(=O)c1c(C(F)F)nn(C)c1Cl (stereo not shown) [Example 111]
6 | 3.23 | CON(CCC(C)c1ccc(C)o1)C(=O)c1c(C(F)F)nn(C)c1F (stereo not shown) [Example 112]
7 | 3.44 | Cc1ccc(CCCN(C(=O)c2c(C(F)F)nn(C)c2F)C2CC2)s1 [Example 113]
8 | 2.21 | Cn1nc(C(F)F)c(C(=O)N(CCCC2CCCO2)C2CC2)c1F (stereo not shown) [Example 114]
9 | 3.55 | Cn1nc(C(F)F)c(C(=O)NCCOc2cc(Cl)cc(Cl)c2)c1Cl [Example 118]
10 | 4.44 | Cn1nc(C(F)F)c(C(=O)NC(C)(C)CCc2ccc(Cl)c(Cl)c2)c1Cl [Example 133]
11 | 3.13 | Cc1cccc(C)c1OCCNC(=O)c1c(C(F)F)nn(C)c1Cl [Example 152]
12 | 2.64 | Cn1nc(C(F)F)c(C(=O)NCCOc2c(F)cccc2F)c1Cl [Example 160]
13 | 3.79 | CC(CCc1ccc(Cl)cc1Cl)NC(=O)c1c(C(F)F)nn(C)c1F (stereo not shown) [Example 186]
14 | 2.39 | Cn1nc(C(F)F)c(C(=O)NCC(=O)Nc2c(Cl)cc(Cl)cc2Cl)c1F [Example 197]
15 | 2.56 | Cn1nc(C(F)F)c(C(=O)NCC(=O)Nc2c(Cl)cc(Cl)cc2Cl)c1Cl [Example 198]
16 | 3.11 | CCCN(CC(=O)Nc1c(Cl)cc(Cl)cc1Cl)C(=O)c1c(C(F)F)nn(C)c1Cl [Example 199]
17 | 2.96 | CCCN(CC(=O)Nc1c(Cl)cc(Cl)cc1Cl)C(=O)c1c(C(F)F)nn(C)c1F [Example 200]

Row | logP | SMILES
18 | 3.80 | Cn1nc(C(F)F)c(C(=O)NCCOc2c(Cl)cc(Cl)cc2Cl)c1Cl [Example 201]
19 | 4.51 | CC(C)N(CCOc1c(Cl)cc(Cl)cc1Cl)C(=O)c1c(C(F)F)nn(C)c1F [Example 203]
20 | 4.37 | CCCN(CCOc1c(Cl)cc(Cl)cc1Cl)C(=O)c1c(C(F)F)nn(C)c1F [Example 204]
21 | 4.56 | CCCN(CCOc1c(Cl)cc(Cl)cc1Cl)C(=O)c1c(C(F)F)nn(C)c1Cl [Example 205]
22 | 5.27 | Cn1nc(C(F)F)c(C(=O)N(CCOc2c(Cl)cc(Cl)cc2Cl)C2CCCC2)c1Cl [Example 206]
23 | 3.55 | Cn1nc(C(F)F)c(C(=O)N(CCOc2c(Cl)cc(Cl)cc2Cl)C2COC2)c1Cl [Example 207]
24 | 4.71 | CC(C)N(CCOc1c(Cl)cc(Cl)cc1Cl)C(=O)c1c(C(F)F)nn(C)c1Cl [Example 208]
25 | 5.08 | Cn1nc(C(F)F)c(C(=O)N(CCOc2c(Cl)cc(Cl)cc2Cl)C2CCCC2)c1F [Example 209]
26 | 4.20 | CC(COc1c(Cl)cc(Cl)cc1Cl)NC(=O)c1c(C(F)F)nn(C)c1Cl (stereo not shown) [Example 211]
27 | 3.92 | CC(COc1c(Cl)cc(Cl)cc1Cl)NC(=O)c1c(C(F)F)nn(C)c1F (stereo not shown) [Example 212]
28 | 3.85 | CCC(COc1cccc2ccccc12)NC(=O)c1c(C(F)F)nn(C)c1Cl (stereo not shown) [Example 223]
29 | 2.44 | CN(CC(=O)OCc1ccccc1)C(=O)c1c(C(F)F)nn(C)c1F [Example 226]
30 | 3.35 | CC(C)C(C(=O)OCc1ccccc1)N(C)C(=O)c1c(C(F)F)nn(C)c1F (stereo not shown) [Example 227]
31 | 2.57 | CN(CC(=O)OCc1ccccc1)C(=O)c1c(C(F)F)nn(C)c1Cl [Example 228]
32 | 3.48 | CC(C)C(C(=O)OCc1ccccc1)N(C)C(=O)c1c(C(F)F)nn(C)c1Cl (stereo not shown) [Example 229]
33 | 1.66 | CN(CCN(C)C(=O)c1c(C(F)F)nn(C)c1F)C(=O)c1ccccc1 [Example 230]
34 | 1.76 | CN(CCN(C)C(=O)c1c(C(F)F)nn(C)c1Cl)C(=O)c1ccccc1 [Example 231]
